Assay results: US20120053119A1, “THERAPEUTIC METHOD FOR INCREASING PANCREATIC BETA CELL MASS” (priority 2009, published 2012)
Ends that are not written are not given here.

Key:
INS-1 or Min6 beta cells = assay: SDF-1 mRNA by QPCR in injured beta cells; format: cell-based; settings: 3 to 20 hrs
Protocol: FIG. 15. […] INS-1 or Min6 beta cells were treated for 3 to 20 hrs with the stress/apoptosis inducers, thapsigargin, streptozotocin (STZ), or mixtures of cytokines (listed at the bottom of the right lower panel). SDF-1 mRNA was measured in cell extracts by QPCR. Cytokines also stimulate the secretion of SDF-1 Protein (see new FIG. 21).

Wnt signaling [1] = assay: Wnt signaling luciferase reporter assay (TOPflash/FOPflash) in INS-1 cells; format: cell-based
Protocol: Wnt signaling is indicated by the value of TOPflash luciferase activity divided by FOPflash activity. A. Time course of the TOPflash:FOPflash ratio of INS-1 cell treated with 1 nM SDF-1. B. Ratio of TOPflash to FOPflash activity in INS-1 cells treated with increasing doses of SDF-1. C. […] All values are relative to the value of the untreated INS-1 cells. Data are normalized for transfection efficiency by co-transfected beta-galactosidase and represent means±S.D. of three experiments.
All values are relative to the first (leftmost) bar. Statistical significance is depicted as * (p<0.05) when compared with control values (leftmost bar). Data are normalized for transfection efficiency by co-transfected beta-galactosidase and represent means±S.D. of three experiments.
Wnt Signaling Luciferase Reporter Assay (TOPflash) INS-1 cells were plated into 24-well dishes 24 hr before transfection with TOPflash or the mutant, control reporter, FOPflash (1 microg/well) using LipofectAMINE2000 (Invitrogen). Various concentrations of SDF-1 or AMD3100 were then added to the culture medium 24 h following transfection for the indicated period of time. In studies in which inhibitors were used, LY294002 (50 microM), PD98059 (10 microM) or SH-5 (10 nM) were added concomitantly with SDF-1. In studies in which wild-type (wt), dominant-negative (dn) or contitutively-active (ca) forms of kinase were used, dnTCF7L2, dnGSK3beta, caGSK3beta, dnAkt, or caAkt (0.5 microg/well) was cotransfected with TOPflash. Luciferase activity in transfected cells was determined with a luciferase assay kit (Promega).
We examined SDF-1 induction of Wnt signaling using a Wnt signaling reporter assay (TOPflash/FOPflash). The TOPflash and FOPflash constructs contain the luciferase reporter either under the control of consensus TCF7L2-binding sites or mutated TCF7L2-binding sites, respectively. Luciferase activity was measured during 4 hr after addition of 1 nM SDF-1 (FIG. 3A).

INS-1 cells [2] = settings: serum-free, SDF-1 2 nM, AMD3100 16 nM-2 uM, day 6
Protocol: INS-1 cells were plated in 96 well plates in control medium (no serum) or a medium containing 2% serum.

INS-1 cells [3] = assay: ATP-lite cell viability assay, serum deprivation, SDF-1 with AMD3100; format: cell-based; settings: serum-free, SDF-1 2 nM
Protocol: ATP lite cell viability assay: INS-1 cells were plated in 96 well plates. SDF-1 (2 nM) and AMD3100 were added at day 0, 2, 4 and cell viability was measured at day 6 using relative light units (RLU) as compared to control. N=6.
INS-1 cells were plated in 96 well plates in control medium (no serum) or a medium containing 2% serum. SDF-1 (2 nM) and SDF-1 (2 nM) along with various concentrations of AMD3100 (2 uM, 0.4 uM, 80 nM, 16 nM) were added to different cell groups incubated in serum-free medium at days 0, 2, 4, and cell viability was measured at day 6 using relative light units (RLU) as compared to control.

Wnt signaling [4] = assay: Wnt signaling reporter (beta-galactosidase) in isolated islets of TopGal mouse; format: cell-based; settings: added with SDF-1, isolated TopGal mouse islets
Text: A. Isolated islets express reporter-driven beta-galactosidase. The dark regions mark the expression of beta-galactosidase, an indicator of the activation of the Wnt signaling reporter LacZ transgene. […] B. Polymerase chain reaction showing changes in beta-galactosidase mRNA levels in islets shown in panel A.
Isolated mouse pancreatic islets Mouse islets were isolated (Lacy PE (1994) Pancreatic islet cell transplant. Mt Sinai J. Med. 61:23-31.) from the pancreata of TopGal reporter mice transgenic for the LEF-LacZ Wnt signaling reporter (DasGupta R, Fuchs E (1999) Development. 1999 126:4557-4568.). Freshly isolated islets were treated for 4 hrs with SDF-1 with and without the addition of the Galphai/o inhibitor pertussis toxin (PTX) or the CXCR4 antagonist AMD3100. Betagalactosidase activity was determined by incubation of the islets with X-gal for 6 hrs.
Polymerase chain reaction analyses of betagalactosidase mRNA levels in isolated mouse islets Islets from TopGal mice were harvested after treatments with SDF-1, SDF-1+AMD3100, and SDF-1+pertussis toxin. RNA was extracted and beta galactosidase mRNA levels were measured by PCR using a SYBR Green QPCR kit (Stratagene) with the primers as described in Liu Z, Habener J F 2008 Glucagon-like Peptide-1 Activation of TCF7L2-dependent Wnt Signaling Enhances Pancreatic Beta Cell Proliferation. […]

INS-1 or MIN6 cells = assay: Thapsigargin-induced apoptosis, caspase-3 activity assay; format: cell-based; settings: thapsigargin 1 microM, 16 h
Protocol: FIG. 6. Inhibition of apoptosis by SDF-1 in INS-1 and MIN-6 cells is reversed by knock-down of betacatenin. A. Western blot analysis of extracts from MIN6 cells that were mock treated, thapsigargin-treated (1 μM) and/or siRNA transfected (0.25 mg/ml), by using anti-serum against cleaved caspase-3 (upper panel), anti-serum against cleaved PARP (middle panel) and actin antibody (lower panel) as a loading control. B. Caspase-3 activity (fluorescence/mg proteinx105) of INS-1 or MIN6 cells mock treated, thapsigargin-treated (1 μM) and/or siRNA transfected (0.25 mg/ml). Results are presented as mean±SD for n=3 independent experiments, All values are relative to the first (leftmost) bar. […] Quantification of apoptotic cells is expressed as percent apoptotic cells relative to the total cells counted (lower left panel). […]
Thapsigargin-induced apoptosis in INS-1 or MIN6 cells For western immuoblot assay (Cell Signaling), MIN6 cells were seeded into 6 well plates then treated with 1 microM thapsigargin or DMSO control for 16 h and apoptotic activity was measured by Western immunoblotting using antisera specific for cleaved (active) caspase-3 (Cell signaling #9661) and cleaved (active) PARP (Cell signaling #9548). For caspase-3 assay, INS-1 cells or MIN-6 cells in 24-well plates were treated with 1 microM thapsigargin or DMSO for 16 hand caspase-3 activity was determined (Molecular Probes). […]

insulin producing cells = settings: in vitro, equimolar quantities; cited from earlier work
mice = assay: Infusion of GLP-1(28-36) amide nonapeptide into mice, islet size; format: in vivo; settings: infusions into mice, preliminary
Text: (§1) The inventors have done preliminary studies using GLP-1(28-36), a nine amino acid peptide (the “nonapeptide”) cleaved from the C-terminus of GLP-1 (SEQ ID NO:4). In the studies, the inventors used the peptide having an arginine amide at the C-terminus (FIAWLVKGR-amide). […] The nonapeptide works both when applied to cells in vitro/ex vivo and when infused into mice in vivo.

pancreatic beta cell = assay: Preliminary studies of nonapeptide on pancreatic beta cell survival and growth; format: cell-based; settings: preliminary data
Text: as §1

[5] = test system: INS-1 cells and mouse islets; assay: GLP-1 pro-proliferative and cytoprotective actions; format: cell-based; settings: tentative

CN(N=O)C(=O)N[C@H]1C(O)O[C@H](CO)[C@@H](O)[C@@H]1O (mixture of isomers) [streptozotocin]
SDF-1 expression (mRNA) in injured beta cells (INS-1 or Min6 beta cells): induces SDF-1 expression

c1cc(CN2CCCNCCNCCCNCC2)ccc1CN1CCCNCCNCCCNCC1 [AMD3100]
effect on SDF-1 activation of luciferase activity (TOPflash/FOPflash) (Wnt signaling [1]; coincubation with increasing amounts): antagonized
effect on SDF-1 mediated insulin production (INS-1 cells [2]): partially and dose-dependently blocked
effect on SDF-1 mediated cell survival (INS-1 cells [3]; AMD3100 16 nM-2 uM): partially and dose-dependently blocked
effective concentration for blocking SDF-1 mediated cell survival (INS-1 cells [3]; day 6): around 1 uM
effect on SDF-1-induced Wnt signaling response in TopGal islets (Wnt signaling [4]): inhibition

COc1cccc(-c2cc(=O)c3ccccc3o2)c1N [PD98059]
effect on SDF-1-stimulated TOPflash activity (Wnt signaling [1]; LY294002 50 microM, PD98059 10 microM, SH-5 10 nM): does not affect
effect on basal level TOPflash activity (Wnt signaling [1]; no SDF-1): do not affect

C/C=C(/C)C(=O)O[C@H]1C(C)=C2[C@H]([C@@H]1OC(=O)CCCCCCC)[C@@](C)(OC(C)=O)C[C@H](OC(=O)CCC)[C@@]1(O)[C@H]2OC(=O)[C@@]1(C)O [Thapsigargin, reference compound]
SDF-1 expression (mRNA) in injured beta cells (INS-1 or Min6 beta cells): induces SDF-1 expression
induction of caspase-3 activity (INS-1 or MIN6 cells): threefold

Exendin-4: GLP-1 agonist peptide from Gila Monster salivary glands, SEQ ID NO: 3
potency at causing insulin release (insulin producing cells): more potent than GLP-1

FIAWLVKGR-amide (FIAWLVKGR-NH2) [GLP-1(28-36) amide nonapeptide]
islet size in mice (mice): enhances islet size
pancreatic beta cell survival and growth (pancreatic beta cell): profound effects

glucoincretin hormone, SEQ ID NO: 2, HAEGTFTSDVSSYLEGQAAKEFIAWLVKGRG [GLP-1]
Kd [5]: 1 nM
cytoprotective actions (concentration) [5]: 10 nM
